Reference: ChEMBL document CHEMBL1201862, “PubChem BioAssay data set” (2004)
Calls of active or inactive are those of the source.

Assays:
[1] = target: T1, Heat shock factor protein 1 (Mus musculus, UniProt P38532); assay: decrease of HSF1-responsive luciferase luminescence – cell-based, NIH3T3, dose retest, confirmation (AID 2382); type: functional;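 note: NIH3T3 fibroblasts with HSF1-driven luciferase reporter stressed by proteasome inhibitor MG132; luminescence from HSF1-driven luciferase expression after 8 hours of MG132 stress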
T1 sequence (P38532 whole entry): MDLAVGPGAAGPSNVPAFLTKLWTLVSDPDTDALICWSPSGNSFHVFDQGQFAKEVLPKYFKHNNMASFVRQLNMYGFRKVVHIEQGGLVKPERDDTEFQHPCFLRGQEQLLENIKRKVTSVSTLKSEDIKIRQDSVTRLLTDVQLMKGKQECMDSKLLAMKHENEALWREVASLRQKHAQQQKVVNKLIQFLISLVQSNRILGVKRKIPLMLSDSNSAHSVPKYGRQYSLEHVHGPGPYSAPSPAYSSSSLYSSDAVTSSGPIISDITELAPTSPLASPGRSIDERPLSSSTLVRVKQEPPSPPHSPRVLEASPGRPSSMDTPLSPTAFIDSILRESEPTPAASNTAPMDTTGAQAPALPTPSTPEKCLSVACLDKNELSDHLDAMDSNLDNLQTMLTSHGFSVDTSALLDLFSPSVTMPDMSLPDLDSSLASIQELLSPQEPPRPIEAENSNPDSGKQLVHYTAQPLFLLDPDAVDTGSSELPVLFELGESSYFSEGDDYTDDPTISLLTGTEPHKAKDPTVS

[2] = target: Cytochrome P450 2C19 (Homo sapiens, UniProt P33261); assay: Cytochrome panel assay with activity outcomes. Panel member name: p450-cyp2c19 Compounds with AC50 equal or less than 10 uM are considered active; type: functional
[3] = target: Cytochrome P450 2C9 (Homo sapiens, UniProt P11712)
[4] = target: T2, Corticotropin-releasing factor receptor 2/Corticotropin-releasing factor-binding protein (Homo sapiens, UniProt P24387+Q13324); assay: Dose Response confirmation of uHTS hits for small molecule antagonists of the CRF-binding protein and CRF-R2 receptor complex.; type: functional; conditions: read-out: IC50_Mean
T2 sequence (Q13324 whole entry): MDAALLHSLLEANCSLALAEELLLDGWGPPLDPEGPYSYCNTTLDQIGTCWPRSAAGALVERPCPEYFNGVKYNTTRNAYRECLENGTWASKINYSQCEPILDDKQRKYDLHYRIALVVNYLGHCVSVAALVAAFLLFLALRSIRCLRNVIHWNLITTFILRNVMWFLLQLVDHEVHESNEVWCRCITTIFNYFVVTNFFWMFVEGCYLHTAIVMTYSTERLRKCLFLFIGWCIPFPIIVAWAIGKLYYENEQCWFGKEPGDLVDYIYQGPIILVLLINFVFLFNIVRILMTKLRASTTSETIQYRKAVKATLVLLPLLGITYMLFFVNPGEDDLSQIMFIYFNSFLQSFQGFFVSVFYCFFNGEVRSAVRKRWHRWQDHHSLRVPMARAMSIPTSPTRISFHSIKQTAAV
T2 sequence (P24387 whole entry): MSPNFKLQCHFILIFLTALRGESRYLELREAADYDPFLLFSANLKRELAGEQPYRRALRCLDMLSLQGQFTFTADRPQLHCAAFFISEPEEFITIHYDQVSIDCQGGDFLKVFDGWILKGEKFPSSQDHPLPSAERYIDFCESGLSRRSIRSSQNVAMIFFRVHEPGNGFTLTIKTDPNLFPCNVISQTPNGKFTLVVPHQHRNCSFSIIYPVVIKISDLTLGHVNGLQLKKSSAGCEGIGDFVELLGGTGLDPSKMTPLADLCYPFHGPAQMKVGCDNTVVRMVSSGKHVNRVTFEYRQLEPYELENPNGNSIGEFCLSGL

[5] = target: T2, Corticotropin-releasing factor receptor 2/Corticotropin-releasing factor-binding protein; assay: activators of CRF receptor 2 with binding protein – uHTS hits, confirmation (AID 602473); type: functional; conditions: read-out: EC50_Mean
[6] = target: T3, Rac GTPase-activating protein 1 (Homo sapiens, UniProt Q9H0H5); assay: blockers of MgcRacGAP-driven Rac1 GTP hydrolysis – biochemical, ADP Hunter fluorescence, primary and confirmatory, confirmation (AID 624330); type: functional
T3 sequence (Q9H0H5 whole entry): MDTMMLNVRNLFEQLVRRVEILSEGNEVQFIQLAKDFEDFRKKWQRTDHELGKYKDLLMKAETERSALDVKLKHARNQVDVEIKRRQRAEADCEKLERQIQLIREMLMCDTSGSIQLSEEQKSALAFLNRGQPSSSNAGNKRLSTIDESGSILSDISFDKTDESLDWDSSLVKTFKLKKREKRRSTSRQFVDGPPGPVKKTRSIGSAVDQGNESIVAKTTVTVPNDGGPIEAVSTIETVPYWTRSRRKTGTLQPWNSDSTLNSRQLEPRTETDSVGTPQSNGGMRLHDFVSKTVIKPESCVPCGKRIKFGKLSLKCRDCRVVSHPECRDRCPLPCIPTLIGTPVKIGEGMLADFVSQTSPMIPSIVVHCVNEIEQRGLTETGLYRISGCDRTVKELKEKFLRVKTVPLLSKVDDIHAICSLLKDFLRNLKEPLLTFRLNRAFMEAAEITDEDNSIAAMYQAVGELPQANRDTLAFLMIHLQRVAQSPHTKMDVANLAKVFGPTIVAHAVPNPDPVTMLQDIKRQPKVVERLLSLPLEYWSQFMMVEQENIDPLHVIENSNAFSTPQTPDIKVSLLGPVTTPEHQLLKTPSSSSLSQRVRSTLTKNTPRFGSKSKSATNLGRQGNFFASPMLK

[7] = target: T4, Cytochrome P450 1A2 (Homo sapiens, UniProt P05177);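 note: PubChem cytochrome P450 panel assay, CYP1A2 panel member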
T4 sequence (P05177 whole entry): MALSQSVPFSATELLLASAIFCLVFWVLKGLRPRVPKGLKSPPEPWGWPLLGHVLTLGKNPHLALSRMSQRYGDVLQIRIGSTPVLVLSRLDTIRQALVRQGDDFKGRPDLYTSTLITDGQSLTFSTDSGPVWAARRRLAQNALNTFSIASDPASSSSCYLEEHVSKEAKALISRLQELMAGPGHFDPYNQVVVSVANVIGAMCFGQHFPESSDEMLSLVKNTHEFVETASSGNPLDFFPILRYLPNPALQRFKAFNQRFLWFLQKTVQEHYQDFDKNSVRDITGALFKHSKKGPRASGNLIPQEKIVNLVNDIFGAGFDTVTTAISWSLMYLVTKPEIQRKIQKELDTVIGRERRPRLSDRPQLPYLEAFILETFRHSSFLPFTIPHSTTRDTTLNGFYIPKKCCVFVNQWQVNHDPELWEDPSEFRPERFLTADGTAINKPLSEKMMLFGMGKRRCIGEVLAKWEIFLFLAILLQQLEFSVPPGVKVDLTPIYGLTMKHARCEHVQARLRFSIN

[8] = target: Cytochrome P450 2D6 (Homo sapiens, UniProt P10635);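 note: CYP2D6 member of a cytochrome P450 panel assay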
Chain of Cytochrome P450 2D6 (P10635 whole entry): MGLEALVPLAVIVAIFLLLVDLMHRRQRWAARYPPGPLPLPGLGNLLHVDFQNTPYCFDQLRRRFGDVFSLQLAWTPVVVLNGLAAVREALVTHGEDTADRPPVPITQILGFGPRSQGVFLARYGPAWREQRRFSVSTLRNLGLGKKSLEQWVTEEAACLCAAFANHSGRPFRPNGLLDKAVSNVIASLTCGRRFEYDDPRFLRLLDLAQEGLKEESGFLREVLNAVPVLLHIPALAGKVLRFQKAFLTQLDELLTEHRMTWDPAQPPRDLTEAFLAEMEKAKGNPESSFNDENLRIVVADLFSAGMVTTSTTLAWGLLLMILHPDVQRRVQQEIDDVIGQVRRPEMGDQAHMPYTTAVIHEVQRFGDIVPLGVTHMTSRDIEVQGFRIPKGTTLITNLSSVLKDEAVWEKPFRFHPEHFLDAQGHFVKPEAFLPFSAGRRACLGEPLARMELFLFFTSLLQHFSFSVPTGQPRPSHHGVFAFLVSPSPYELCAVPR

Chain of Cytochrome P450 2C19 (P33261 whole entry): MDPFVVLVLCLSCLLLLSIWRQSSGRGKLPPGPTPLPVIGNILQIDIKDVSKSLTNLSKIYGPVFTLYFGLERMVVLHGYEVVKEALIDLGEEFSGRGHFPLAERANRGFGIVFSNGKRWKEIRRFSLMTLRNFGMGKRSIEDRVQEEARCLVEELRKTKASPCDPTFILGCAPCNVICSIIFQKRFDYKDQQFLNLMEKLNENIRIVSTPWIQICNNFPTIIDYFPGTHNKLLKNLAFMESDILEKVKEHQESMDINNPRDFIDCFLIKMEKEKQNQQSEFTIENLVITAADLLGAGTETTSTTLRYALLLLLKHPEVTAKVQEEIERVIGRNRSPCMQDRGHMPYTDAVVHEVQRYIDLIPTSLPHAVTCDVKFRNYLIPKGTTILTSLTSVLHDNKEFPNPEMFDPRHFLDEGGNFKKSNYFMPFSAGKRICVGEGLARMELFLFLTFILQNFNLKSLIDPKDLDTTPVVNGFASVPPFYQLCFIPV
Chain of Cytochrome P450 2C9 (P11712 whole entry): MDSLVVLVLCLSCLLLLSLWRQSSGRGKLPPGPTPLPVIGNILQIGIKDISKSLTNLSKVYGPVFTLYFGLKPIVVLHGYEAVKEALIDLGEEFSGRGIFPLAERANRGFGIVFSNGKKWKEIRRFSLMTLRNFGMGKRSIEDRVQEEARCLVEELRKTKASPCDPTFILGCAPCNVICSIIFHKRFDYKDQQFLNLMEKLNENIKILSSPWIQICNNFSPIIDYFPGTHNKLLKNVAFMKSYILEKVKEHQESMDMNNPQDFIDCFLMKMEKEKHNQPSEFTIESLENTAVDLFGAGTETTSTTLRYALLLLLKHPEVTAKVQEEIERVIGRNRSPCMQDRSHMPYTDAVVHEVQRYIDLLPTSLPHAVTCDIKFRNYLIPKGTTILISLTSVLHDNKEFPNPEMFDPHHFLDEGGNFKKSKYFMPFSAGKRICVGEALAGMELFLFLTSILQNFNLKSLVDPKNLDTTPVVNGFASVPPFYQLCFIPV

CCCN1Cc2cccc(C(=O)N3CCN(c4ccc(OC)cc4)CC3)c2C1=O
EC50 [1]: > 195 µM (not active)

Oc1c2c(nc3c(-c4ccccc4)cnn13)CCC2
AC50 ([2]; read-out: AC50): 31.6 µM (inconclusive)
AC50 [3]: 22.4 µM (inconclusive)

CCn1cc(C2=NOC(C(=O)Nc3ccccc3C(=O)OC)C2)c(C)n1 (stereo not given)
IC50 [4]: > 47.1 µM (inactive)
EC50 [5]: > 53 µM (inactive)

CC(C)CCNC(=O)CN(C(=O)CCC(=O)Nc1nccs1)c1ccc2c(c1)OCCO2
EC50 [1]: 5.9 µM (active)

CCn1c(SCC(=O)NC(=O)NCc2ccco2)nnc1-c1cccs1
AC50 [3]: 39.8 µM (inconclusive)

CCCS(=O)(=O)N1CCCC(C(=O)NCCCN2CCN(c3ccccc3F)CC2)C1 (stereo not given)
AC50 ([2]; read-out: AC50): 39.8 µM (inconclusive)
AC50 [3]: 5.01 µM (inconclusive)

COc1ccc2cc(OCC(=O)NNC(=O)Nc3ccc(F)cc3)ccc2c1
IC50 [6]: 65 µM (active)

Cc1onc(-c2ccccc2Cl)c1C(=O)NCc1ccc(N2CCCC2=O)cc1
IC50 [4]: > 47.1 µM (inactive)
EC50 [5]: > 53 µM (inactive)

O=C1/C(=N\O)Cc2ccccc21
AC50 ([2]; read-out: AC50): 39.8 µM (inconclusive)
AC50 [7]: 14.1 µM (inconclusive)

COc1ccc(NC(C)=O)cc1NC(=O)CN1CCN(CC(=O)Nc2ccccc2Cl)CC1
EC50 [1]: > 195 µM (not active)
AC50 [3]: 20 µM (inconclusive)

Cc1cc(NC(=O)c2c([N+](=O)[O-])c(C)nn2C)no1
AC50 [2]: inconclusive
AC50 [7]: 39.8 µM (inconclusive)

O=C1C2C3C=CC(C3)C2C(=O)N1CCCO (stereo not given)
IC50 [4]: > 47.1 µM (inactive)
EC50 [5]: > 53 µM (inactive)

COc1ccc(-c2csc(NC(=O)CN3C(=O)C4CC=CCC4C3=O)n2)cc1OC (stereo not given)
IC50 [4]: > 47.1 µM (inactive)
EC50 [5]: > 53 µM (inactive)

C=CCn1c(SCC(C)=O)nnc1-c1cc(-c2ccccc2)sc1N
IC50 [6]: 29.1 µM (active)

COc1cc(=O)n2c(n1)SCCC2
AC50 [3]: 31.6 µM (inconclusive)

c1ccc(-n2c(-c3ccncc3)nnc2-c2ccco2)cc1
IC50 [4]: > 47.1 µM (inactive)
EC50 [5]: > 53 µM (inactive)

Cc1ccc(S(=O)(=O)N2CCN(CCNC(=O)C(=O)NCc3ccccc3)CC2)cc1
EC50 [1]: > 195 µM (not active)

CCN=C(S)NNC(=O)c1cccc(Br)c1
AC50 ([2]; read-out: AC50): 5.62 µM (inconclusive)
AC50 [7]: 17.8 µM (inconclusive)

Cc1cnc(C(=O)Nc2ccccc2-n2cccc2)cn1
EC50 [1]: > 195 µM (not active)

CCOc1cc(/C=N/NC(=O)c2ccccc2-n2cccc2)ccc1O
IC50 [6]: 46.2 µM (active)

Cc1cccc(CN2CCN(Cc3ccco3)CC2)c1
IC50 [6]: 87.2 µM (active)

Clc1cccc(Oc2cnc3ccccc3n2)c1
AC50 [3]: 14.1 µM (inconclusive)

Fc1cccc(NC(S)=NCc2ccc(Cl)cc2)c1
IC50 [4]: > 47.1 µM (inactive)
EC50 [5]: > 53 µM (inactive)

COc1ccccc1CNc1ccnc(-c2c(C)noc2C)n1
AC50 [8]: 20 µM (inconclusive)
AC50 [3]: 0.501 µM (inconclusive)

NS(=O)(=O)c1ccc(CN=C(S)NC2CCCCC2)cc1
EC50 [1]: > 195 µM (not active)

Cn1c(=O)c(C(=O)NCc2ccccc2Cl)c(O)c2ccccc21
IC50 [4]: > 47.1 µM (inactive)
EC50 [5]: > 53 µM (inactive)

O=C(N/N=C/c1ccc(O)cc1)c1csc2c1CCCC2
IC50 [6]: 51.6 µM (active)

c1ccc(-c2nc3ccccc3c3nncn23)cc1
EC50 [1]: > 195 µM (not active)

CN1CCN(c2ncc3nc(-c4ccc(Cl)cc4)c(=O)n(CCC#N)c3n2)CC1
AC50 [2]: inconclusive
AC50 [7]: 15.8 µM (inconclusive)

CCN1CCN(CC(c2ccccc2)c2ccccc2)CC1
IC50 [6]: 197 µM (active)

COc1ccc(C(C)N2CC34C=CC(O3)C(C(=O)O)C4C2=O)cc1 (stereo not given)
EC50 [1]: > 195 µM (not active)

N#C/C(=C/c1cccc(C(F)(F)F)c1)c1nc(CCN2C(=O)c3ccccc3C2=O)cs1
EC50 [1]: > 195 µM (not active)

CN1CCN(c2nc(-c3ccc(C(C)(C)C)cc3)nc3ccccc23)CC1
EC50 [1]: 0.328 µM (active)

N=C1[C@@H](O)[C@]2(I)c3ccccc3N3C(=N)[C@H](O)[C@@H]4c5ccccc5N1[C@@H]4[C@@H]32
AC50 [8]: 6.31 µM (inconclusive)
AC50 [3]: 7.94 µM (inconclusive)

C[C@@H](CC(=O)O)[C@@H](N)C(=O)O
AC50 [7]: 31.6 µM (inconclusive)

CC(=O)Nc1nn(C)c2nc(C)cc(C)c12
EC50 [1]: > 195 µM (not active)

COC(=O)CC1SC(=O)NC1=Nc1ccc(OC)cc1 (stereo not given)
IC50 [4]: > 47.1 µM (inactive)
EC50 [5]: > 53 µM (inactive)

COc1ccc(/C=N/NC(=O)c2cccc(S(=O)(=O)N3CCCC3)c2)cc1O
IC50 [6]: 57.5 µM (active)

Nc1ccc(O)c([N+](=O)[O-])c1
IC50 [6]: 42.8 µM (active)

Cc1ccc2[nH]c(Cc3ccc(N)cc3)nc2c1
AC50 [3]: 14.1 µM (inconclusive)

O=[N+]([O-])c1ccc(Nc2nc(N/N=C\c3ccc4c(c3)OCO4)nc(N3CCCCC3)n2)cc1
AC50 [3]: 8.91 µM (inconclusive)
AC50 [7]: 8.91 µM (inconclusive)

CCOC(=O)C1CCN(C(=O)c2n[nH]c(=O)c3ccccc23)CC1
IC50 [4]: > 47.1 µM (inactive)
EC50 [5]: > 53 µM (inactive)

Cc1ccc(/N=N\c2c(O)ccc3cc(S(=O)(=O)O)ccc23)cc1
AC50 [3]: 3.16 µM (inconclusive)
AC50 [7]: 5.01 µM (inconclusive)

NS(=O)(=O)c1ccc(NC(=O)CSc2nnc(COc3ccccc3Cl)n2C2CC2)cc1
IC50 [4]: > 47.1 µM (inactive)
EC50 [5]: > 53 µM (inactive)

Cc1ncn(C23CC4CC(CC(C4)C2)C3)n1
IC50 [4]: > 47.1 µM (inactive)
EC50 [5]: > 53 µM (inactive)

COc1ccc(/C=N/NC(=O)c2ccc(CSc3nc(C)cc(C)n3)cc2)cc1O
IC50 [6]: 114 µM (active)

CC1CC(=O)Nc2cc([N+](=O)[O-])ccc2N1 (stereo not given)
EC50 [1]: > 195 µM (not active)

Nc1ccn([C@@H]2O[C@H](CNCC3=CCOc4ccc(O)cc43)[C@@H](O)[C@H]2O)c(=O)n1
IC50 [6]: 92.4 µM (active)
